Patent US10745382B2 (BRISTOL-MYERS SQUIBB COMPANY, priority 2015, dated 2020)
pIC50: −log10 of the molar value.

biological target: T1, PD-1/PD-L1 (Homo sapiens, UniProt Q9NZQ7); test: PD-1/PD-L1 Homogenous Time-Resolved Fluorescence (HTRF) binding assay; conditions: PD-L1-His 10 nM, PD-1-Ig 20 nM; numeric IC50; read-out: Range or IC50
T1 construct: made in house; host or cells: HEK293T
In short: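 Compounds are tested for blocking the PD-1/PD-L1 interaction in dPBS supplemented with 0.1% BSA and 0.05% (v/v) Tween-20. Tagged proteins are detected with Eu-cryptate anti-Ig and APC anti-His at 1 and 20 nM final.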

T1 sequence (Q9NZQ7 with tags, fused parts or gaps): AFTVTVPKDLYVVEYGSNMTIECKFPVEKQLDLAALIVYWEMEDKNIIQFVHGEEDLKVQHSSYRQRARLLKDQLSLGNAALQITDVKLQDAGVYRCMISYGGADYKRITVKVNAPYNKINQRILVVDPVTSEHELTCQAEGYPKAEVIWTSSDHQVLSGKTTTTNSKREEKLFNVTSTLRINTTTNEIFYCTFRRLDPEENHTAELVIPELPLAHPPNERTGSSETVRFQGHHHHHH

With Cc1c(COc2cc(OCc3cncc(C#N)c3)c(CN3CCCC[C@H]3C(=O)O)cc2Cl)cccc1-c1cccc(OCC(=O)N2CC[C@H](O)C2)c1 [Example 1005, (S)-1-(5-chloro-2-((5-cyanopyridin-3-yl)methoxy)-4-((3′-(2-((S)-3-hydroxypyrrolidin-1-yl)-2-oxoethoxy)-2-methyl-[1,1′-biphenyl]-3-yl)methoxy)benzyl)piperidine-2-carboxylic Acid] the pIC50 was 7.43.

same assay, conditions: PD-L1-His 10 nM, PD-1-Ig 20 nM; value given as range class; read-out: Range or IC50

Compared with Cc1c(COc2cc(OCc3cncc(C#N)c3)c(CNC(CO)CO)cc2Cl)cccc1-c1cccc(NC(=O)c2ncccc2CO)c1C [Example 2340, N-(3′-((2-chloro-5-((5-cyanopyridin-3-yl)methoxy)-4-(((1,3-dihydroxypropan-2-yl)amino)methyl)phenoxy)methyl)-2,2′-dimethyl-[1,1′-biphenyl]-3-yl)-3-(hydroxymethyl)picolinamide], Cc1c(COc2cc(OCc3cncc(C#N)c3)c(CNC(CO)CO)cc2Cl)cccc1-c1cccc(OCCCNCCc2cccnc2)c1Cl [Example 2037, 5-((4-chloro-5-((2′-chloro-2-methyl-3′-(3-((2-(pyridin-3-yl)ethyl)amino)propoxy)-[1,1′-biphenyl]-3-yl)methoxy)-2-(((1,3-dihydroxypropan-2-yl)amino)methyl)phenoxy)methyl)nicotinonitrile] is higher in pIC50: 7.00 to 8.00 for the first, 8.00 to 9.68 for the second. The second is the more potent here.

CC(CO)(CO)NCc1cc(Cl)c(OCc2cccc(-c3cccc(OCCCN4CC[C@@H](O)C4)c3Cl)c2Cl)cc1OCc1cccc(C#N)c1 [Example 2059, (R)-3-((4-chloro-5-((2,2′-dichloro-3′-(3-(3-hydroxypyrrolidin-1-yl)propoxy)-[1,1′-biphenyl]-3-yl)methoxy)-2-(((1,3-dihydroxy-2-methylpropan-2-yl)amino)methyl)phenoxy)methyl)benzonitrile] and Cc1c(COc2cc(OCc3cc(Cl)cc(Cl)c3)c(CNC(C)(CO)CO)cc2Cl)cccc1-c1cccc(OCCCN2CC[C@@H](O)C2)c1C [Example 4504, (R)-2-((5-chloro-2-((3,5-dichlorobenzyl)oxy)-4-((3′-(3-(3-hydroxypyrrolidin-1-yl)propoxy)-2,2′-dimethyl-[1,1′-biphenyl]-3-yl)methoxy)benzyl)amino)-2-methylpropane-1,3-diol] fall in the same range of pIC50: 8.00 to 9.68 for the first, 8.00 to 9.68 for the second.

Cc1ccccc1-c1cccc(COc2cc(OCc3cncc(C#N)c3)c(CN[C@](C)(CO)C(=O)O)cc2Cl)c1C [Example 3022, (R)-2-((5-chloro-2-((5-cyanopyridin-3-yl)methoxy)-4-((2,2′-dimethyl-[1,1′-biphenyl]-3-yl)methoxy)benzyl)amino)-3-hydroxy-2-methylpropanoic Acid] and Cc1ccccc1-c1cccc(COc2cc(OCc3cncc(C#N)c3)c(CN[C@@](C)(CO)C(=O)O)cc2Cl)c1C [Example 3020, (S)-2-((5-chloro-2-((5-cyanopyridin-3-yl)methoxy)-4-((2,2′-dimethyl-[1,1′-biphenyl]-3-yl)methoxy)benzyl)amino)-3-hydroxy-2-methylpropanoic Acid] fall in the same range of pIC50: 8.00 to 9.68 for the first, 8.00 to 9.68 for the second.

Cc1c(COc2cc(OCc3cncc(C#N)c3)c(CNC[C@H](O)CO)cc2Cl)cccc1-c1cccc(OCCCN2CC[C@H](O)[C@@H](O)C2)c1Cl [Example 2030, 5-((4-chloro-5-((2′-chloro-3′-(3-((3S,4S)-3,4-dihydroxypiperidin-1-yl)propoxy)-2-methyl-[1,1′-biphenyl]-3-yl)methoxy)-2-((((S)-2,3-dihydroxypropyl)amino)methyl)phenoxy)methyl)nicotinonitrile] and Cc1c(COc2cc(OCc3cncc(C#N)c3)c(CN[C@](C)(CO)C(=O)O)cc2Cl)cccc1-c1cccc(OCCCNC[C@H](O)CO)c1Cl [Example 2048, (R)-2-((5-chloro-4-((2′-chloro-3′-(3-(((S)-2,3-dihydroxypropyl)amino)propoxy)-2-methyl-[1,1′-biphenyl]-3-yl)methoxy)-2-((5-cyanopyridin-3-yl)methoxy)benzyl)amino)-3-hydroxy-2-methylpropanoic Acid] fall in the same range of pIC50: 8.00 to 9.68 for the first, 8.00 to 9.68 for the second.

Cc1c(COc2cc(OCc3cncc(C#N)c3)c(CN3CCCC[C@H]3C(=O)O)cc2Cl)cccc1-c1cccc(OCCCN2C[C@@H](O)C[C@H]2C(=O)O)c1C [Example 2240, (2S)-1-(4-((3′-(3-((2S,4S)-2-carboxy-4-hydroxypyrrolidin-1-yl)propoxy)-2,2′-dimethylbiphenyl-3-yl)methoxy)-5-chloro-2-((5-cyanopyridin-3-yl)methoxy)benzyl)piperidine-2-carboxylic Acid] and Cc1c(COc2cc(OCc3cncc(C#N)c3)c(CN3CCCC[C@H]3C(=O)O)cc2Cl)cccc1-c1cccc(OCCCN2CC[C@@H](O)C2)c1Cl [Example 1510, (S)-1-(5-chloro-4-((2′-chloro-3′-(3-((R)-3-hydroxypyrrolidin-1-yl)propoxy)-2-methyl-[1,1′-biphenyl]-3-yl)methoxy)-2-((5-cyanopyridin-3-yl)methoxy)benzyl)piperidine-2-carboxylic acid] fall in the same range of pIC50: 8.00 to 9.68 for the first, 8.00 to 9.68 for the second.

Cc1c(COc2cc(OCc3cncc(S(C)(=O)=O)c3)c(CN3CCCC[C@H]3C(=O)O)cc2Cl)cccc1-c1cccc(OCCCN2CCC(CO)(C(=O)O)C2)c1Cl (single isomer, unassigned) [Example 1062] and CCOC(=O)C1(CO)CCN(CCCOc2cccc(-c3cccc(COc4cc(OCc5cncc(C#N)c5)c(CN5CCCC[C@H]5C(=O)O)cc4Cl)c3C)c2Cl)C1 (stereo partly drawn) [Example 1101, (2S)-1-(5-chloro-4-((2′-chloro-3′-(3-(3-(ethoxycarbonyl)-3-(hydroxymethyl)pyrrolidin-1-yl)propoxy)-2-methyl-[1,1′-biphenyl]-3-yl)methoxy)-2-((5-cyanopyridin-3-yl)methoxy)benzyl)piperidine-2-carboxylic Acid] fall in the same range of pIC50: 8.00 to 9.68 for the first, 8.00 to 9.68 for the second.

N#Cc1cncc(COc2cc(OCc3cccc(-c4cccc(OCCCN5CCCCC5)c4Cl)c3Cl)c(Cl)cc2CN2CCCC[C@H]2C(=O)O)c1 [Example 2045, (S)-1-(5-chloro-2-((5-cyanopyridin-3-yl)methoxy)-4-((2,2′-dichloro-3′-(3-(piperidin-1-yl)propoxy)-[1,1′-biphenyl]-3-yl)methoxy)benzyl)piperidine-2-carboxylic Acid] and Cc1c(COc2cc(OCc3cncc(C#N)c3)c(CN3CCCCC3CO)cc2Cl)cccc1-c1cccc(OCCCN2CCCCC2CO)c1C (stereo not shown) [Example 2256, 5-((4-chloro-2-((2-(hydroxymethyl)piperidin-1-yl)methyl)-5-((3′-(3-(2-(hydroxymethyl)piperidin-1-yl)propoxy)-2,2′-dimethylbiphenyl-3-yl)methoxy)phenoxy)methyl)nicotinonitrile] fall in the same range of pIC50: 8.00 to 9.68 for the first, 8.00 to 9.68 for the second.

Cc1c(COc2cc(OCc3cncc(C#N)c3)c(CN3CCN(C)C(=O)C3)cc2Cl)cccc1-c1cccc(OCCCN2CC[C@@H](O)C2)c1C [Example 2330, (R)-5-((4-chloro-5-((3′-(3-(3-hydroxypyrrolidin-1-yl)propoxy)-2,2′-dimethyl-[1,1′-biphenyl]-3-yl)methoxy)-2-((4-methyl-3-oxopiperazin-1-yl)methyl)phenoxy)methyl)nicotinonitrile] and Cc1c(COCCN2CC[C@@H](O)C2)cccc1-c1cccc(COc2cc(OCc3cncc(C#N)c3)c(CN(C)C3(C(=O)O)CC3)cc2Cl)c1C [Example 4129, (R)-1-((5-chloro-2-((5-cyanopyridin-3-yl)methoxy)-4-((3′-((2-(3-hydroxypyrrolidin-1-yl)ethoxy)methyl)-2,2′-dimethyl-[1,1′-biphenyl]-3-yl)methoxy)benzyl)(methyl)amino)cyclopropane-1-carboxylic Acid] fall in the same range of pIC50: 8.00 to 9.68 for the first, 8.00 to 9.68 for the second.

First: Cc1c(COc2cc(OCc3cncc(C#N)c3)c(CN3CCOC[C@H]3C(=O)O)cc2Cl)cccc1-c1cccc(C(=O)N(C)C)c1C [Example 4036, (S)-4-(5-chloro-2-((5-cyanopyridin-3-yl)methoxy)-4-((3′-(dimethylcarbamoyl)-2,2′-dimethyl-[1,1′-biphenyl]-3-yl)methoxy)benzyl)morpholine-3-carboxylic Acid]
Second: Cc1c(COc2cc(OCc3cncc(C#N)c3)c(CN3CCCC[C@H]3C(=O)O)cc2Cl)cccc1-c1cccc(OCCCN[C@@H](CO)c2ccccc2)c1C [Example 2230, (2S)-1-(5-chloro-2-((5-cyanopyridin-3-yl)methoxy)-4-((3′-(3-((R)-2-hydroxy-1-phenylethylamino)propoxy)-2,2′-dimethylbiphenyl-3-yl)methoxy)benzyl)piperidine-2-carboxylic Acid]
The pIC50 of the first is lower: 5.00 to 5.70 for the first, 8.00 to 9.68 for the second. The second is the more potent here.

CCOC(=O)C1(CO)CCN(CCCOc2cccc(-c3cccc(COc4cc(OCc5cncc(C#N)c5)c(CN[C@](C)(CO)C(=O)O)cc4Cl)c3C)c2C)C1 (stereo partly drawn) [Example 1049, (2R)-2-((5-chloro-2-((5-cyanopyridin-3-yl)methoxy)-4-((3′-(3-(3-(ethoxycarbonyl)-3-(hydroxymethyl)pyrrolidin-1-yl)propoxy)-2,2′-dimethyl-[1,1′-biphenyl]-3-yl)methoxy)benzyl)amino)-3-hydroxy-2-methylpropanoic Acid] and CCOC(=O)C1(O)CCN(CCCOc2cccc(-c3cccc(COc4cc(OCc5cncc(C#N)c5)c(CN[C@](C)(CO)C(=O)O)cc4Cl)c3C)c2Cl)CC1 [Example 1098, (R)-2-((5-chloro-4-((2′-chloro-3′-(3-(4-(ethoxycarbonyl)-4-hydroxypiperidin-1-yl)propoxy)-2-methyl-[1,1′-biphenyl]-3-yl)methoxy)-2-((5-cyanopyridin-3-yl)methoxy)benzyl)amino)-3-hydroxy-2-methylpropanoic Acid] fall in the same range of pIC50: 8.00 to 9.68 for the first, 8.00 to 9.68 for the second.

Molecule Cc1c(COc2cc(OCc3cc(F)cc(F)c3)c(CN3CCCC[C@H]3C(=O)O)cc2Cl)cccc1-c1cccc(OCCCN2CC[C@@H](O)C2)c1C [Example 4521, (S)-1-(5-chloro-2-((3,5-difluorobenzyl)oxy)-4-((3′-(3-((R)-3-hydroxypyrrolidin-1-yl)propoxy)-2,2′-dimethyl-[1,1′-biphenyl]-3-yl)methoxy)benzyl)piperidine-2-carboxylic Acid] has a pIC50 of 8.00 to 9.68.
